Experimental data as given in patent US20200339691A1, “PROTEINACEOUS MOLECULES AND USES THEREFOR” (priority 2018, published 2020).
Where a SMILES comes first, the peptide text is derived from it. The star is where a group is joined. Myristoyl = CCCCCCCCCCCCCC(=O)*

Legend:
MDA-MB-231 cells = format: cell-based, human; conditions: 50 μM peptide, 48 hours, n = 1
Text: (§1) Non-adherent cells were removed during the washing steps.

[1] = test system: CD44^hiCD24^lo CSCs in MDA-MB-231 cells; experiment: FACS analysis of CD44^hiCD24^lo cancer stem cells in MDA-MB-231 cells treated with P1 analogues; format: cell-based, human; conditions: 50 μM peptide, 48 hours; for CD44^hiCD24^lo CSCs (%) / COI, Live Single CD44^hiCD24^lo CSCs (Cell Count): n = 1; for Average Inhibition of CSCs (%) / CD44^hiCD24^lo CSCs (%) Repeat 1 / CD44^hiCD24^lo CSCs (%) Repeat 2 / CD44^hiCD24^lo CSCs (%) Repeat 3: n = 3
Experimental: Analogues of P1 (Table 6) were designed and synthesized in accordance with the procedure of Example 5. The ability of these analogues to inhibit cancer stem cells was determined using FACS analysis on MDA-MB-231 cells, which constitutively contain approximately 90% CD44^hiCD24^lo cancer stem cells, treated with the peptides.
as §1
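Wherever COI, Live Single Cells (Cell Count) is given: live means Hoechst-negative events among single cells.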

Structure (SMILES) | COI (Cell Count) (MDA-MB-231 cells) | COI, Live Single Cells (Cell Count) (MDA-MB-231 cells) | COI, Single (Cell Count) (MDA-MB-231 cells) | Total Cell Count (MDA-MB-231 cells) | Inhibition of CSCs (%) Repeat 1 [1] | Inhibition of CSCs (%) Repeat 2 [1] | Inhibition of CSCs (%) Repeat 3 [1] | CD44^hiCD24^lo CSCs (%) [1] | COI, Live Single CD44^hiCD24^lo CSCs (Cell Count) [1] | Average Inhibition of CSCs (%) [1] | CD44^hiCD24^lo CSCs (%) Repeat 1 [1] | CD44^hiCD24^lo CSCs (%) Repeat 2 [1] | CD44^hiCD24^lo CSCs (%) Repeat 3 [1]
CCCCCCCCCCCCCC(=O)N[C@@H](CC(C)C)C(=O)N[C@H](C(=O)N[C@@H](Cc1ccccc1)C(=O)N[C@H](C(=O)N[C@@H](Cc1ccccc1)C(=O)N[C@@H](CCCNC(=N)N)C(=O)N[C@H](C(=O)N[C@@H](CCCNC(=N)N)C(=O)N[C@@H](CCCCN)C(=O)NCC(=O)N[C@@H](CCCNC(=N)N)C(=O)N[C@@H](CCSC)C(=O)N[C@@H](CCSC)C(=O)N[C@@H](CC(=O)O)C(=O)N[C@H](C(=O)N[C@@H](CCCCN)C(=O)N[C@@H](CCCCN)C(N)=O)C(C)C)C(C)C)[C@@H](C)CC)[C@@H](C)O [Peptide 2853820, Myristoyl-LTFIFRVRKGRMMDVKK-NH2] (Myristoyl-LTFIFRVRKGRMMDVKK-NH2) | 541 | 211 | 346 | 3098 | 89.75% | 90.39% | 91.76% | 6.64% | 14 | 90.63% | 9.19% | 8.62% | 7.40%
CCCCCCCCCCCCCC(=O)N[C@@H](CC(C)C)C(=O)N[C@H](C(=O)N[C@@H](Cc1ccccc1)C(=O)N[C@H](C(=O)N[C@@H](Cc1ccccc1)C(=O)N[C@@H](CCCNC(=N)N)C(=O)N[C@@H](CCC(=O)O)C(=O)N[C@@H](CCCNC(=N)N)C(=O)N[C@@H](CCCCN)C(=O)NCC(=O)N[C@@H](CCCNC(=N)N)C(=O)N[C@@H](CCSC)C(=O)N[C@@H](CCSC)C(=O)N[C@@H](CC(=O)O)C(=O)N[C@H](C(=O)N[C@@H](CCCCN)C(=O)N[C@@H](CCCCN)C(N)=O)C(C)C)[C@@H](C)CC)[C@@H](C)O [Peptide 2853821, Myristoyl-LTFIFRERKGRMMDVKK-NH2] (Myristoyl-LTFIFRERKGRMMDVKK-NH2) | 2756 | 2223 | 2240 | 7421 | 85.54% | 87.64% | 89.89% | 13.00% | 289 | 87.69% | 12.96% | 11.09% | 9.08%
CCCCCCCCCCCCCC(=O)N[C@@H](CC(C)C)C(=O)N[C@H](C(=O)N[C@@H](Cc1ccccc1)C(=O)N[C@H](C(=O)N[C@@H](Cc1ccccc1)C(=O)N[C@@H](CCCNC(=N)N)C(=O)N[C@@H](CCCCN)C(=O)N[C@@H](CCCNC(=N)N)C(=O)N[C@@H](CCCCN)C(=O)NCC(=O)N[C@@H](CCCNC(=N)N)C(=O)N[C@@H](CCSC)C(=O)N[C@@H](CCSC)C(=O)N[C@@H](CC(=O)O)C(=O)N[C@H](C(=O)N[C@@H](CCCCN)C(=O)N[C@@H](CCCCN)C(N)=O)C(C)C)[C@@H](C)CC)[C@@H](C)O [Peptide 2853822, Myristoyl-LTFIFRKRKGRMMDVKK-NH2] (Myristoyl-LTFIFRKRKGRMMDVKK-NH2) | 768 | 648 | 657 | 3204 | 81.93% | 81.80% | 81.03% | 4.78% | 31 | 81.59% | 16.19% | 16.33% | 17.02%
